Data: paper PMC6917776, “Discovery of a chemical probe for PRDM9” (Nature Communications, 2019)

Tested on: H3K4me3 at known PRDM9 binding loci and control TSS loci
Assay: ChIP-qPCR of H3K4me3 in PRDM9-transfected HEK293T cells
Format: cell-based, human
Conditions: for H3K4me3 ChIP-qPCR 2^-dCq (IP-Input) / 2^-dCq (H3K4me3 IP relative to H3): Replicate 2; for H3K4me3 ChIP-qPCR 2^-dCq (IP-Input): H3K4me3 antibody relative to H3; for <Cq>: mean of two wells, Antibody H3K4me3, Plasmid PRDM9WT, Figure 7 Replicate 2
Description: ChIP-qPCR assays were then conducted on known PRDM9 binding loci[26]. Ectopic expression of PRDM9^WT increased trimethylation of H3K4 (H3K4me3) at previously described PRDM9-specific intragenic and intergenic regions[26] (Fig. 7; Supplementary Fig. 12). […] The observed increases in H3K4me3 levels at intragenic and intergenic regions are therefore due directly to PRDM9 PR domain-dependent methylation activity, rather than through recruitment of other H3K4 methyltransferases or other indirect mechanisms.
ChIP qPCR analyses of H3K4me3 methylation levels of known PRDM9-bound loci and control loci. […] Concentrations used (µM) are indicated below each plot. (a–d) represent reported loci of PRDM9 methylation; (e, f) are transcriptional start sites (TSSs) which are not known loci of PRDM9 methylation. Data are normalized to total H3 and are presented as the mean ± upper and lower limits from two replicates. Representative plots of two independent experiments are shown in this figure. The coordinates and the genomic features associated with the assayed loci are indicated above each plot. Left Tailed Student's t-tests were performed by comparing DMSO (0 µM) treated cells to compound treated cells that have been transfected with the same plasmids. *p-value < 0.05 and **p-value < 0.01. Note that here we show a representative of two independent experiments (mean ± s.d of technical replicates) for our ChIP-qPCR experiments. Data obtained using this technique are inherently noisy due to stochastic differences in gene activity/histone positioning. Data are thus typically presented as representative rather than averaged. Source data are provided as a Source Data file.
HEK293T cells were transfected with 37.5 μg empty pcDNA3.1(+) vector (Invitrogen), or the same vector expressing either wild-type PRDM9 (PRDM9^WT) or a catalytically dead PRDM9 mutant (PRDM9^Mut) and 75 μL of Lipofectamine 2000 (Invitrogen) in 6 mL of Opti-MEM (GIBCO) for 48 h. […] ChIP assays were then performed as previously described. Briefly, cells were fixed in 1% formaldehyde and the fixation reaction was quenched in a final concentration of 0.1 M glycine. Cell pellets were first lysed in LB1 (50 mM HEPES-KOH pH 7.5, 140 mM NaCl, 1 mM EDTA, 10% Glycerol, 0.5% Igepal, 0.25% TritonX), washed once in LB2 Buffer (10 mM Tris-HCl pH 8, 200 mM NaCl, 1 mM EDTA, 0.5 mM EGTA) and finally sonicated in LB3 buffer (10 mM Tris-HCl pH 8, 100 mM NaCl, 1 mM EDTA, 0.5 mM EGTA, 0.1% Sodium deoxycholate, 0.5% N-laurosylsarcosine) using a bioruptor (Diagenode). Thereafter, 50 μg of chromatin was subjected to ChIP using the following antibodies purchased from Abcam: α-H3K4me3 (1:200, ab8580, lot:GR3207339-1) and α-H3 (1:250, ab1791, lot:GR300978-4). After extensive washing in RIPA wash buffer (50 mM HEPES-KOH pH 7.6, 100 mM LiCl, 1 mM EDTA, 1% Igepal, 0.7% Sodium Deoxycholate), DNA was eluted from beads. The eluted DNA was treated with RNase A and Proteinase K and purified using the QIAGEN PCR purification kit. qPCR was then carried out targeting the indicated loci (Supplementary Table 3). Upper and lower limits were defined by |2^−(dCq±s) − 2^−(∆Cq)|, where s = √((Standard deviation of Input Cq)^2 + (Standard deviation of Target Cq)^2). […]
formation. ChIP qPCR analyses of H3K4me3 methylation levels at known PRDM9-bound and control loci. Cells transfected with empty vector (negative control) or vectors overexpressing either wild-type PRDM9 (PRDM9 WT) or catalytically dead PRDM9 (PRDM9 MUT) were […]
Panels a-d represent reported loci of […]
(1 picture or pasted object on this page, not shown here)
PRDM9 methylation; e-f are TSSs which are not known sites of PRDM9 methylation. Data are normalized to total H3 and are presented as the mean ± upper and lower limits from two […]

## COc1cc(OC)cc(-c2noc(N3CCN(C)C4(CCN(c5ccnc(C)c5)CC4)C3)n2)c1 [MRK-740]
chr2:40281930-40282015 Intragenic (SLC8A1-AS1), Figure 7 C, PRDM9WT, Drug Conc. 10
  H3K4me3 ChIP-qPCR 2^-dCq (IP-Input): 2.181
chr2:40281930-40282015 Intragenic (SLC8A1-AS1), Empty Vector, Drug Conc. 5, Figure S12 C
  2^-dCq (H3K4me3 IP relative to H3): 0.9795
chr2:40281930-40282015 Intragenic (SLC8A1-AS1), PRDM9MUT, Drug Conc. 5, Figure S12 C
  2^-dCq (H3K4me3 IP relative to H3): 0.2048
chr2:40281930-40282015 Intragenic (SLC8A1-AS1), PRDM9WT, Drug Conc. 5, Figure S12 C
  2^-dCq (H3K4me3 IP relative to H3): 5.934
chr2:128811847-128811944 (Intergenic), Figure 7 A, Empty Vector, Drug Conc. 2.5
  H3K4me3 ChIP-qPCR 2^-dCq (IP-Input): 1.167
chr2:128811847-128811944 (Intergenic), Figure 7 A, Empty Vector, Drug Conc. 5
  H3K4me3 ChIP-qPCR 2^-dCq (IP-Input): 1.563
chr2:128811847-128811944 (Intergenic), Figure 7 A, Empty Vector, Drug Conc. 10
  H3K4me3 ChIP-qPCR 2^-dCq (IP-Input): 1.267
chr2:128811847-128811944 (Intergenic), Figure 7 A, PRDM9WT, Drug Conc. 2.5
  H3K4me3 ChIP-qPCR 2^-dCq (IP-Input): 4.007
chr2:128811847-128811944 (Intergenic), Figure 7 A, PRDM9WT, Drug Conc. 5
  H3K4me3 ChIP-qPCR 2^-dCq (IP-Input): 4.852
chr2:128811847-128811944 (Intergenic), Figure 7 A, PRDM9WT, Drug Conc. 10
  H3K4me3 ChIP-qPCR 2^-dCq (IP-Input): 1.932
chr2:128811847-128811944 (Intergenic), Empty Vector, Drug Conc. 5, Figure S12 A
  2^-dCq (H3K4me3 IP relative to H3): 1.563
chr2:128811847-128811944 (Intergenic), PRDM9MUT, Drug Conc. 5, Figure S12 A
  2^-dCq (H3K4me3 IP relative to H3): 0.3928
chr2:128811847-128811944 (Intergenic), PRDM9WT, Drug Conc. 5, Figure S12 A
  2^-dCq (H3K4me3 IP relative to H3): 4.852
chr3:165514798-165514911 Intragenic (BCHE), Empty Vector, Drug Conc. 5, Figure S12 D
  2^-dCq (H3K4me3 IP relative to H3): 0.9187
chr3:165514798-165514911 Intragenic (BCHE), PRDM9MUT, Drug Conc. 5, Figure S12 D
  2^-dCq (H3K4me3 IP relative to H3): 0.2392
chr3:165514798-165514911 Intragenic (BCHE), PRDM9WT, Drug Conc. 5, Figure S12 D
  2^-dCq (H3K4me3 IP relative to H3): 7.878
chr8:49932778-49932856 (Intergenic), Figure 7 B, Empty Vector, Drug Conc. 2.5
  H3K4me3 ChIP-qPCR 2^-dCq (IP-Input): 0.8281
chr8:49932778-49932856 (Intergenic), Figure 7 B, Empty Vector, Drug Conc. 5
  H3K4me3 ChIP-qPCR 2^-dCq (IP-Input): 1.029
chr8:49932778-49932856 (Intergenic), Figure 7 B, Empty Vector, Drug Conc. 10
  H3K4me3 ChIP-qPCR 2^-dCq (IP-Input): 0.9528
chr8:49932778-49932856 (Intergenic), Figure 7 B, PRDM9WT, Drug Conc. 2.5
  H3K4me3 ChIP-qPCR 2^-dCq (IP-Input): 8.6274
chr8:49932778-49932856 (Intergenic), Figure 7 B, PRDM9WT, Drug Conc. 5
  H3K4me3 ChIP-qPCR 2^-dCq (IP-Input): 4.182
chr8:49932778-49932856 (Intergenic), Figure 7 B, PRDM9WT, Drug Conc. 10
  H3K4me3 ChIP-qPCR 2^-dCq (IP-Input): 1.779
chr8:49932778-49932856 (Intergenic), Empty Vector, Drug Conc. 5, Figure S12 B
  2^-dCq (H3K4me3 IP relative to H3): 1.029
chr8:49932778-49932856 (Intergenic), PRDM9MUT, Drug Conc. 5, Figure S12 B
  2^-dCq (H3K4me3 IP relative to H3): 0.2948
chr8:49932778-49932856 (Intergenic), PRDM9WT, Drug Conc. 5, Figure S12 B
  2^-dCq (H3K4me3 IP relative to H3): 4.182
chr12:6643945-6644023 TSS (GAPDH), Empty Vector, Drug Conc. 5, Figure S12 E
  2^-dCq (H3K4me3 IP relative to H3): 83.0384
chr12:6643945-6644023 TSS (GAPDH), PRDM9MUT, Drug Conc. 5, Figure S12 E
  2^-dCq (H3K4me3 IP relative to H3): 72.3311
chr12:6643945-6644023 TSS (GAPDH), PRDM9WT, Drug Conc. 5, Figure S12 E
  2^-dCq (H3K4me3 IP relative to H3): 130.72
chr19:8510167-8510261 TSS (HNRNPM), Empty Vector, Drug Conc. 5, Figure S12 F
  2^-dCq (H3K4me3 IP relative to H3): 107.435
chr19:8510167-8510261 TSS (HNRNPM), PRDM9MUT, Drug Conc. 5, Figure S12 F
  2^-dCq (H3K4me3 IP relative to H3): 76.5131
chr19:8510167-8510261 TSS (HNRNPM), PRDM9WT, Drug Conc. 5, Figure S12 F
  2^-dCq (H3K4me3 IP relative to H3): 143.684
Drug Conc. 2.5
  <Cq>: 20.8229
Drug Conc. 5
  <Cq>: 20.8538
Drug Conc. 10
  <Cq>: 21.2288
